From PubChem BioAssay (NCI)
“And” between values parts separate entries of the source, which are not always exact repeats. Equal values may be shown once.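 Assay format: 96-well plates, 48-hour exposure. GI50 is the concentration that inhibits growth by half. The concentration for full growth arrest is given as TGI.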

What was measured:
Assay in all cases: growth of human tumour cells (NCI), 48 h
SK-MEL-28 melanoma = tested on: SK-MEL-28 melanoma
NCI-H226 lung = tested on: NCI-H226 lung
SF-539 CNS = tested on: SF-539 CNS
NCI-H23 lung = tested on: NCI-H23 lung
HOP-92 NSCLC = tested on: HOP-92 NSCLC
U251 CNS = tested on: U251 CNS
MDA-MB-435 = tested on: MDA-MB-435
MDA-MB-231 breast = tested on: MDA-MB-231 breast
PC-3 prostate = tested on: PC-3 prostate
SR leukemia = tested on: SR leukemia

| SMILES | GI50 (SK-MEL-28 melanoma) [µM] | TGI (SK-MEL-28 melanoma) [µM] | GI50 (NCI-H226 lung) [µM] | TGI (NCI-H226 lung) [µM] | GI50 (SF-539 CNS) [µM] | TGI (SF-539 CNS) [µM] | GI50 (NCI-H23 lung) [µM] | TGI (NCI-H23 lung) [µM] | GI50 (HOP-92 NSCLC) [µM] | TGI (HOP-92 NSCLC) [µM] | GI50 (U251 CNS) [µM] | TGI (U251 CNS) [µM] | TGI (MDA-MB-435) [µM] | TGI (MDA-MB-231 breast) [µM] | TGI (PC-3 prostate) [µM] | TGI (SR leukemia) | GI50 (MDA-MB-435) [µM] | GI50 (SR leukemia) | GI50 (MDA-MB-231 breast) [µM] | GI50 (PC-3 prostate) [µM] |
| --- | --- | --- | --- | --- | --- | --- | --- | --- | --- | --- | --- | --- | --- | --- | --- | --- | --- | --- | --- | --- |
| CC(=O)[CH-]C(=O)c1ccccc1.CC(=O)[CH-]C(=O)c1ccccc1.Cl.[O-]c1ccnc2ccccc12.[O-]c1ccnc2ccccc12.[Ti+4] | > 100 | > 100 | > 100 | > 100 | > 100 | > 100 | > 100 | > 100 | > 100 | > 100 | > 100 | > 100 | – | – | – | – | – | – | – | – |
| O/N=C(\CC(O)(C(F)(F)F)C(F)(F)F)c1cccs1 | – | > 10 | – | > 10 | – | > 10 | – | > 10 | – | > 10 | – | > 10 | > 10 | > 10 | > 10 | – | – | – | – | – |
| CC1OC(n2cc(C(F)(F)F)c(=O)[nH]c2=O)C=CC1=O (configuration not stated) | – | 38.2 | – | 66.1 | – | 35.2 | – | 33 | – | 41 | – | – | – | – | – | 33.3 µM | – | – | – | – |
| O=C(NC1CC1)c1c(O)[nH]c(=S)[nH]c1=O | – | > 100 | – | > 100 | – | > 100 | – | > 100 | – | > 100 | – | > 100 | – | – | – | > 100 µM | – | – | – | – |
| Cc1ccc(S(=O)(=O)OCOS(=O)(=O)c2ccc(C)cc2)cc1 | – | > 100 | – | – | – | > 100 | – | > 100 | – | – | – | > 100 | – | – | – | > 100 µM | – | – | – | – |
| O=c1nc2sc3ccccc3c(=O)n2[nH]1 | – | > 100 | – | > 100 | – | > 100 | – | > 100 | – | > 100 | – | > 100 | – | – | – | > 100 µM | – | – | – | – |
| CC(=Nc1ccc(N(C)C)cc1)c1ccccc1 | – | > 100 | – | > 100 | – | > 100 | – | > 100 | – | – | – | > 100 | – | 35.4 | 99.4 | 49.9 µM | – | – | – | – |
| CC1(C)C(=O)OC(n2cc(F)c(=O)[nH]c2=O)C1=O (configuration not stated) | – | > 100 | – | > 100 | – | > 100 | – | > 100 | – | 98.6 | – | > 100 | – | – | – | – | – | – | – | – |
| COC(=O)[C@H](Cc1cn(C)cn1)NC(=O)[C@H](CC(=O)OCc1ccccc1)NC(=O)Nc1cc(C(F)(F)F)cc(C(F)(F)F)c1 | 9.51 | 21.6 | 16.3 | 34.5 | 12.4 | 25.6 | 15.8 | 30.7 | – | – | 2.61 | 7.85 | 18.8 | 23.3 | 25.7 | 9.41 µM and 4.34 µM | 5.9 | 3.67 µM and 2.04 µM | 10.9 | 12.7 |
| Cc1cccc(NC(=O)C(=O)C(C2OC(=O)c3ccccc32)[N+](=O)[O-])c1C (configuration not stated) | – | 25.1 | – | 26.4 | – | 34.9 | – | 18.9 | – | – | – | 12.6 | – | – | – | > 100 µM | – | – | – | – |
| CN(C)c1ccc(/C=C(\C#N)c2cc3ccccc3[nH]2)cc1 | 2.63 | > 100 | – | – | 1.97 | 35.1 | 3.21 | > 100 | 1.42 | 5.53 | 0.913 | 18.6 | 0.641 | > 100 | 31.6 | > 100 µM | 0.228 | 0.497 µM | 1.63 | 1.15 |
